In paper PMC2386126, “The Mycobacterium tuberculosis Rv2540c DNA sequence encodes a bifunctional chorismate synthase” (BMC Biochemistry, 2008):

Legend:
[1] = biological target: T1, MtCS (chorismate synthase, aroF, Rv2540c) (Mycobacterium tuberculosis, UniProt P9WPY1); test: biochemical; type: binding; conditions: read-out: dissociation constant
T1 construct: gene aroC

[2] = tested on: NC(=O)C1=CN([C@@H]2O[C@H](COP(=O)(O)OP(=O)(O)OC[C@H]3O[C@@H](n4cnc5c(N)ncnc54)[C@H](O)[C@@H]3O)[C@@H](O)[C@H]2O)C=CC1; test: purified protein; conditions: apparent, holoenzyme preincubated with 40 μM FMNox, no EPSP, 50 mM Tris-HCl pH 7.8, 25°C

T1 sequence (P9WPY1 whole entry, looked up): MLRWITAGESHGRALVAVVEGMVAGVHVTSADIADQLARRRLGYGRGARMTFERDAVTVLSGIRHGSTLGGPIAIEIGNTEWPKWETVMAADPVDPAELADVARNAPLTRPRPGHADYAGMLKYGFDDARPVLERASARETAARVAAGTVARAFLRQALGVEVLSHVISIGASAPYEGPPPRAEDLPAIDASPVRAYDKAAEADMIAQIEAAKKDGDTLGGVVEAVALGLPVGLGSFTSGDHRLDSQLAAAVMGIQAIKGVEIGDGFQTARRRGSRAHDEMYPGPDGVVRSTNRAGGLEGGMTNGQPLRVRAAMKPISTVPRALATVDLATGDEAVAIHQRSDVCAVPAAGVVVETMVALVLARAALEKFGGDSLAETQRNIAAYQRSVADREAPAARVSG

Row | Molecule | Kd [1] | Km [2]
1 | NC(=O)C1=CN([C@@H]2O[C@H](COP(=O)(O)OP(=O)(O)OC[C@H]3O[C@@H](n4cnc5c(N)ncnc54)[C@H](O)[C@@H]3O)[C@@H](O)[C@H]2O)C=CC1 [NADH] | 156 ± 12 µM | 
2 | MtCS (chorismate synthase, aroF, Rv2540c) (Mycobacterium tuberculosis H37Rv) |  | 36 ± 4 µM
